Measurements: patent US10807952B2 (Achillion Pharmaceuticals, Inc., priority 2015, dated 2020)

Biological target: Human Factor D (Homo sapiens (Human), UniProt P00746)
Experiment: Human Factor D assay (Z-L-Lys-SBzl / DTNB, absorbance at 405 nm)
Assay type: biochemical
Details: Table 4; Human Factor D 80 nM, assay of Example 13
Summary of the method: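 Human serum-purified Factor D (80 nM final) was preincubated with compound for 5 min at room temperature in 50 mM Tris, 1M NaCl, pH 7.5. IC50 came from nonlinear regression of rate versus compound concentration.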

Chain of Human Factor D (P00746 26-253): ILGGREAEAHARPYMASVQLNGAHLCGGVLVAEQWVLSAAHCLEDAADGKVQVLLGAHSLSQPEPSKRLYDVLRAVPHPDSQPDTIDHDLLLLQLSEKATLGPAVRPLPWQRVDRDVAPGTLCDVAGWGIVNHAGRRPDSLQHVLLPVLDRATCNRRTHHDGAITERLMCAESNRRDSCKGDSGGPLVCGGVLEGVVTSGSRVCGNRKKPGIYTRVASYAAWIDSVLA

Compound | IC50 [µM]
CC(=O)c1nn(CC(=O)N2C[C@H](F)C[C@H]2C(=O)Nc2cccc(-c3ccc4sc(O)nc4c3)c2F)c2ccccc12 [Compound 103, (2S,4R)-1-(2-(3-acetyl-1H-indazol-1-yl)acetyl)-4-fluoro-N-(2-fluoro-3-(2-hydroxybenzo[d]thiazol-5-yl)phenyl)pyrrolidine-2-carboxamide] | < 1
CC(=O)c1nn(CC(=O)N2C[C@H](F)C[C@H]2C(=O)Nc2cccc(/C=C/c3nc4c(Cl)cccc4[nH]3)c2F)c2ccccc12 [Compound 104, (2S,4R)-1-(2-(3-acetyl-1H-indazol-1-yl)acetyl)-N-(3-((E)-2-(4-chloro-1H-benzo[d]imidazol-2-yl)vinyl)-2-fluorophenyl)-4-fluoropyrrolidine-2-carboxamide] | < 1
Cc1cccc(NC(=O)[C@@H]2CCC(F)CCN2C(=O)Cn2cc(C(N)=O)c3cc(C4=CCCCC4)ccc32)n1 (stereo partly drawn) [Compound 106, 5-(cyclohex-1-en-1-yl)-1-(2-((2S)-5-fluoro-2-((6-methylpyridin-2-yl)carbamoyl)azepan-1-yl)-2-oxoethyl)-1H-indole-3-carboxamide] | > 10
Cc1c(Br)c(C(N)=O)nn1CC(=O)N1C[C@H](F)C[C@H]1C(=O)Nc1cccc(Br)n1 [Compound 107, 4-Bromo-1-(2-((2S,4R)-2-((6-bromopyridin-2-yl)carbamoyl)-4-fluoropyrrolidin-1-yl)-2-oxoethyl)-5-methyl-1H-pyrazole-3-carboxamide] | 1 to 10
